system: Nucleic Acid; assay: DNA binding dissociation constant as KD; assay type: nucleic-acid assay

In order of falling Log Kd:
1. C[n+]1ccc(Nc2ccc(NC(=O)c3ccc(Nc4cc[n+](C)c5ccc(N)cc45)cc3)cc2)cc1  6.9
2. COc1cccc2c1C(=O)c1c(O)c3c(c(O)c1C2=O)C[C@@](O)(C(C)=O)C[C@@H]3O[C@H]1C[C@H](N)[C@H](O)[C@H](C)O1  6.49
3. Cc1c2cc[n+](C)cc2c(C)c2c1[nH]c1ccc(O)cc12  6.11
4. Cn1cc(NC(=O)c2cc(NC(=O)c3cc(NC=O)cn3C)cn2C)cc1C(=O)NCCC(=N)N  6.06
5. CS(=O)(=O)Nc1cccc(Nc2c3ccccc3nc3ccccc23)c1  5.8
6. CS(=O)(=O)Nc1ccccc1Nc1c2ccccc2nc2ccccc12  5.72
7. C[n+]1c(-c2ccccc2)c2cc(N)ccc2c2ccc(N)cc21  5.7
8. Nc1c2ccccc2nc2ccccc12  5.7
9. CC[n+]1c(-c2ccccc2)c2cc(N)ccc2c2ccc(N)cc21  5.7
10. CCN(CC)CCOc1ccc2c(c1)C(=O)c1cc(OCCN(CC)CC)ccc1-2  5.64
11. CS(=O)(=O)Nc1ccc(Nc2c3ccccc3nc3ccccc23)cc1  5.63
12. c1ccc2c(c1)[nH]c1cnccc12  5.34
13. Cc1c2ccncc2c(C)c2c1[nH]c1ccccc12  5.18
14. CN(C)CCN1C(=O)c2cccc3cc([N+](=O)[O-])cc(c23)C1=O  5.16
15. COc1cc(NS(C)(=O)=O)ccc1Nc1c2ccccc2nc2ccccc12  5.14
16. CC[n+]1c(-c2ccccc2)c2cc(N)ccc2c2ccccc21  4.9
17. c1ccc2c(c1)ccc1[n+]2Cc2ccc3ccccc3[n+]2-1  4.7
18. CCN(CC)CCCC(C)Nc1c2ccc(Cl)cc2nc2ccc(OC)cc12 (stereo unspecified)  4.25
19. CCN(CC)CCCC(C)Nc1ccnc2cc(Cl)ccc12 (stereo unspecified)  4.25
20. Cc1cc2nc3ccccc3n(-c3cccc(N(C)C)c3)c-2c(C)c1=N  3.64
21. Cc1c2ccncc2c(C)c2c1[nH]c1ccc(O)cc12  0.3
